Data taken from patent US20160257988A1, “Indicator Molecules For Use In Detecting Enzyme Cleavage Activity” (Mologic Limited, priority 2013, published 2016).

Molecular target: T1, Matrix-Metalloproteinase 9 (MMP9) (Homo sapiens, UniProt P14780)
T1 construct: 5 μl sample (active MMP9 at 2 μg/ml)
Assay: Fluorogenic peptide cleavage assay with active MMP9 (kinetic fluorescence scan)
Type: biochemical
Settings: active MMP9 at 2 μg/ml, 5 μl of 0.2 mM peptide per well; excitation 328 nm, emission 400 nm; kinetic scan 30 min; FIG. 3
Description: 2 flurogenic peptides with 1 (PCL0174 A4) or 2 (PCL0174 B1) cleavable sequences respectively were investigated with sensitivity towards Matrix-Metalloproteinase 9 (MMP9).
96-well assay plate, black polystyrene, Costar®, Corning Inc. (Cat. #3925, lot #25011023)
MMP buffer, Aq. Solution of 50 mM Tris, 100 mM sodium chloride, 10 mM Calcium Chloride, 50 μM […] zinc chloride, 0.025% Brij 35, 0.05% sodium azide at pH 8.0.
Peptides PCL0174 A4 and PCL0174 B1 at a molar concentration of 8 mM
Testing Method • Peptides at a stock of 8 mM were diluted to 0.2 mM in MMP buffer • 2 μl+78 μl MMP buffer • 5 μl sample (active MMP9 at 2 μg/ml)+190 μl MMP buffer added to well • 5 μl of 0.2 mM peptide added per well • Read on a Fluorometer using the following settings: • Excitation wavelength: 328 nm, bandwidth 5 nm • Emission wavelength: 400 nm, bandwidth 5 nm • Kinetic scan: 30 min, interval 1 min

T1 sequence (P14780 107-707 limits assumed, species assumed): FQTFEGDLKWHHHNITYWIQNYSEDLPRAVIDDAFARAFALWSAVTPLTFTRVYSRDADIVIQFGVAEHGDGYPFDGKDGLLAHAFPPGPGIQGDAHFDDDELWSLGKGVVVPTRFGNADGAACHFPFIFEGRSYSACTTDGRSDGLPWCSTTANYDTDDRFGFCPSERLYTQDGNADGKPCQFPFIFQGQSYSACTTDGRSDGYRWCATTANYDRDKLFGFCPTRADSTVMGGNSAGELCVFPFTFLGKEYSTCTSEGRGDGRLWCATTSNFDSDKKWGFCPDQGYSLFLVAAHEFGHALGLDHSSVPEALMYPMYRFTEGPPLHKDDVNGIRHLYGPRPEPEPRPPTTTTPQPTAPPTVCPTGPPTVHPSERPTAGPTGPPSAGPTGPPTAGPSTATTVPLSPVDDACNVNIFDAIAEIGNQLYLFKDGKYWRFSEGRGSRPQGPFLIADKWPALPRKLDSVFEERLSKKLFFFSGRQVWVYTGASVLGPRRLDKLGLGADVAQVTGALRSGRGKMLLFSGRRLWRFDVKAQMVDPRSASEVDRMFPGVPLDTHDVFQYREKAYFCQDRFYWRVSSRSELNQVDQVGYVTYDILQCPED

Row | Substance | running time at which the same result (signal) is achieved
1 | Lys(Mc Coumarin)-[GPQGIFGQ])-[GPQGIFGQ]-Lys(Dnp)G [2 CS] | 8 min
2 | Lys(Mc Coumarin)-[GPQGIFGQ]-Lys(Dnp)G [1 CS] | 30 min
